Measurements reported in paper PMC9977050, “Thymoquinone effect on the Dictyostelium discoideum model correlates with functional roles for glutathione S-transferases in eukaryotic proliferation, chemotaxis, and development” (PLOS ONE, 2023).

Legend:
Experiment in all cases: CDNB conjugation assay, absorbance at […] nm
Type in all cases: biochemical
rDdGSTA2 [1] = target: T1, rDdGSTA2 (Dictyostelium discoideum, UniProt Q556G3); details: with GSH, 25°C
T1 construct: gene gsta2-1; purified recombinant
T1 sequence (Q556G3 2-198): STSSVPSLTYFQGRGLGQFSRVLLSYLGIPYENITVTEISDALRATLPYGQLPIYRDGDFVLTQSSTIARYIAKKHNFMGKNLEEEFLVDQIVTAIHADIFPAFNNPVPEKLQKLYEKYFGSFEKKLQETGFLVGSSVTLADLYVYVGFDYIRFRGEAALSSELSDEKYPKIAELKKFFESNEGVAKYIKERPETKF

rDdGSTA3 = target: T2, rDdGSTA3 (Dictyostelium discoideum, UniProt Q54VI4); details: with GSH, 25°C
T2 construct: gene gsta3; purified recombinant
T2 sequence (Q54VI4 2-204): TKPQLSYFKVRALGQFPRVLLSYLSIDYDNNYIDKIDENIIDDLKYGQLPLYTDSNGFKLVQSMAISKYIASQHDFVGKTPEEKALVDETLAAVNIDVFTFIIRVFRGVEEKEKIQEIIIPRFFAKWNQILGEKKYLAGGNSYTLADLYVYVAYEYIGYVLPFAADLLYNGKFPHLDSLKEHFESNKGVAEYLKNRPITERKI

rDdGSTA2 [2] = target: T1, rDdGSTA2; details: GSH and CDNB as substrates, 25°C; mode not determined; authors caution that thymoquinone may also bind GSH, CDNB or product

SMILES | CDNB conjugation assay, absorbance at 340 nm (rDdGSTA2 [1]) | CDNB conjugation assay, absorbance at 340 nm (rDdGSTA3) | % reduction of GS-DNB conjugate at 0.75 μM (rDdGSTA2 [2]) [%]
O=[N+]([O-])c1ccc(Cl)c([N+](=O)[O-])c1 [CDNB, 1-chloro-2,4-dinitrobenzene] | CDNB activity assays of purified, recombinant GSTs (rDdGSTA2, rDdGSTA3) were conducted | CDNB activity assays of purified, recombinant GSTs (rDdGSTA2, rDdGSTA3) were conducted | –
CC1=CC(=O)C(C(C)C)=CC1=O [thymoquinone, 2-isopropyl-5-methylbenzo-1,4-quinone] | – | – | 61
